The source made the active and inactive calls. The calls are words filed in the database; no cut-off is given here. Bounds are passed on as bounds.

Experiment [1] deals with Acinetobacter baumannii. The experiment can be described thus: Antimicrobial activity against colistin-resistant Acinetobacter baumannii 213 transconjugant with 16S rRNA methylase armA gene expressing Acinetobacter baumannii isolate D. The experiment is classed as functional, organism-based.
Experiment [2] relates to Acinetobacter baumannii. The experiment can be described thus: Antimicrobial activity against colistin-resistant Acinetobacter baumannii 213 transconjugant with 16S rRNA methylase armA gene expressing Acinetobacter baumannii isolate E. The format is functional, organism-based.
Experiment [3] has as its system Acinetobacter baumannii. The experiment can be described thus: Antibacterial activity against Acinetobacter baumannii isolate A expressing 16S rRNA methylase armA gene. The experiment is classed as functional.
The test system of experiment [4] is Acinetobacter baumannii. The experiment can be described thus: Antibacterial activity against Acinetobacter baumannii isolate B expressing 16S rRNA methylase armA gene. The format is functional.
For experiment [5], the system named is Acinetobacter baumannii. The experiment can be described thus: Antibacterial activity against Acinetobacter baumannii isolate C expressing 16S rRNA methylase armA gene. The format is functional.
Experiment [6] has as its system Acinetobacter baumannii. In words: Antibacterial activity against Acinetobacter baumannii isolate D expressing 16S rRNA methylase armA gene. The experiment is classed as functional.
Experiment [7] has as its system Acinetobacter baumannii. The experiment can be described thus: Antibacterial activity against Acinetobacter baumannii isolate E expressing 16S rRNA methylase armA gene. The experiment is classed as functional.
The test system of experiment [8] is Escherichia coli. In words: Antibacterial activity against Escherichia coli DH10B expressing Acinetobacter baumannii isolate B 16S rRNA methylase armA gene. To be noted: K-12 substr. DH10B. The experiment is classed as functional.
Experiment [9] relates to Acinetobacter baumannii. In words: Antibacterial activity against armA knockout Acinetobacter baumannii 231. The experiment is classed as functional, organism-based.
For experiment [10], the system named is Escherichia coli. In words: Antimicrobial activity against azide-resistant Escherichia coli J53 transconjugant with 16S rRNA methylase armA gene expressing Acinetobacter baumannii isolate A. The experiment is classed as functional, organism-based.
For experiment [11], the system named is Escherichia coli. In words: Antimicrobial activity against azide-resistant Escherichia coli J53 transconjugant with 16S rRNA methylase armA gene expressing Acinetobacter baumannii isolate B. The format is functional, organism-based.
Experiment [12] has as its system Escherichia coli. In words: Antimicrobial activity against azide-resistant Escherichia coli J53 transconjugant with 16S rRNA methylase armA gene expressing Acinetobacter baumannii isolate C. The format is functional, organism-based.
For experiment [13], the system named is Escherichia coli. The experiment can be described thus: Antimicrobial activity against azide-resistant Escherichia coli J53 transconjugant with 16S rRNA methylase armA gene expressing Acinetobacter baumannii isolate D. The format is functional, organism-based.
The subject of experiment [14] is Escherichia coli. In words: Antimicrobial activity against azide-resistant Escherichia coli J53 transconjugant with 16S rRNA methylase armA gene expressing Acinetobacter baumannii isolate E. The experiment is classed as functional, organism-based.
The test system of experiment [15] is Acinetobacter baumannii. In words: Antimicrobial activity against colistin-resistant Acinetobacter baumannii 213 transconjugant with 16S rRNA methylase armA gene expressing Acinetobacter baumannii isolate A. The experiment is classed as functional, organism-based.
The test system of experiment [16] is Acinetobacter baumannii. The experiment can be described thus: Antimicrobial activity against colistin-resistant Acinetobacter baumannii 213 transconjugant with 16S rRNA methylase armA gene expressing Acinetobacter baumannii isolate B. The format is functional, organism-based.
Experiment [17] deals with Acinetobacter baumannii. In words: Antimicrobial activity against colistin-resistant Acinetobacter baumannii 213 transconjugant with 16S rRNA methylase armA gene expressing Acinetobacter baumannii isolate C. The experiment is classed as functional, organism-based.

Regarding `NCC[C@H](O)C(=O)N[C@@H]1C[C@H](N)[C@@H](O[C@H]2O[C@H](CN)[C@@H](O)[C@H](O)[C@H]2O)[C@H](O)[C@H]1O[C@H]1O[C@H](CO)[C@@H](O)[C@H](N)[C@H]1O` [AMIKACIN], the result in experiment [1], in experiment [2], in [9], in [10], in experiment [11] and in experiment [12] was Active. For the same compound, the result in experiment [13], in [14], in [15], in experiment [16] and in [17] was Active. The minimum inhibitory concentration (MIC) (commonly the least concentration at which growth counts as inhibited) in experiment [3] is more than 512 µg/mL; in experiment [4], more than 512 µg/mL; in experiment [5] it was more than 512 µg/mL; in experiment [6] it was more than 512 µg/mL; in experiment [7] it was more than 512 µg/mL; in experiment [8], not below 256 µg/mL.
Consider `NC[C@H]1O[C@H](O[C@H]2[C@H](O)[C@@H](O[C@H]3O[C@H](CO)[C@@H](O)[C@H](N)[C@H]3O)[C@H](N)C[C@@H]2N)[C@H](N)C[C@@H]1O` [TOBRAMYCIN], for which the MIC is more than 512 µg/mL in [3]; more than 512 µg/mL in experiment [4]; more than 512 µg/mL in experiment [5]; more than 512 µg/mL in experiment [6]; more than 512 µg/mL in [7]; not below 256 µg/mL in experiment [8].
On to GENTAMICIN, for which the MIC in experiment [3] is more than 512 µg/mL; in experiment [4], more than 512 µg/mL; in experiment [5], more than 512 µg/mL; in [6], more than 512 µg/mL; in experiment [7], more than 512 µg/mL; in experiment [8], more than 256 µg/mL.

The values are drawn from ChEMBL document CHEMBL1137657, “Identification of 16S rRNA methylase-producing Acinetobacter baumannii clinical strains in North America” (2007).
